Laboratory results from ChEMBL document CHEMBL1201862, “PubChem BioAssay data set” (2004).
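Exposure lasted 48 hours, with cells grown in 96-well plates and compounds tested at five concentrations. Abbreviation: GI50, concentration required for 50% inhibition of growth.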 Activity calls are given as the source filed them. No stated cut-off is given here; in the data, active = GI50 up to about 1.1 µM and inactive = higher.

Tests used:
Assay in all cases: NCI anticancer screen, dose series, 48 h
SK-MEL-2 = tested on: SK-MEL-2
NCI-H23 = tested on: NCI-H23
SK-MEL-28 = tested on: SK-MEL-28
HT-29 = tested on: HT-29
M19-MEL = tested on: M19-MEL
SR = tested on: SR
OVCAR-8 = tested on: OVCAR-8
HOP-62 = tested on: HOP-62
K562 = tested on: K562
KM-20L2 = tested on: KM-20L2
EKVX = tested on: EKVX
LXFL 529 = tested on: LXFL 529
NCI-H522 = tested on: NCI-H522
M14 = tested on: M14
SF-268 = tested on: SF-268
OVCAR-4 = tested on: OVCAR-4
U-251 = tested on: U-251
HOP-92 = tested on: HOP-92
RPMI-8226 = tested on: RPMI-8226
NCI-H226 = tested on: NCI-H226
NCI-H460 = tested on: NCI-H460
HCT-15 = tested on: HCT-15
KM12 = tested on: KM12
HCT-116 = tested on: HCT-116
A498 = tested on: A498
786-0 = tested on: 786-0
UO-31 = tested on: UO-31
SK-MEL-5 = tested on: SK-MEL-5
HL-60 = tested on: HL-60
XF498 = tested on: XF498
DMS-114 = tested on: DMS-114
SW-620 = tested on: SW-620
UACC-257 = tested on: UACC-257
TK-10 = tested on: TK-10
OVCAR-5 = tested on: OVCAR-5
DLD-1 = tested on: DLD-1
Malme-3M = tested on: Malme-3M
CCRF-CEM = tested on: CCRF-CEM
SNB-19 = tested on: SNB-19
OVCAR-3 = tested on: OVCAR-3
A549 = tested on: A549
SNB-75 = tested on: SNB-75
SN12C = tested on: SN12C
SF-295 = tested on: SF-295
CAKI-1 = tested on: CAKI-1
SNB-78 = tested on: SNB-78
UACC-62 = tested on: UACC-62
SK-OV-3 = tested on: SK-OV-3
COLO 205 = tested on: COLO 205
ACHN = tested on: ACHN
MOLT-4 = tested on: MOLT-4
DMS-273 = tested on: DMS-273
RXF 393 = tested on: RXF 393
SF-539 = tested on: SF-539
LOX IMVI = tested on: LOX IMVI
IGROV-1 = tested on: IGROV-1
HOP-18 = tested on: HOP-18

SMILES: O=C(/C=C1\Nc2ccccc2C(=O)N1c1ccc(Cl)cc1)c1ccncc1
- GI50 (SK-MEL-2): > 100 µM (inactive)
- GI50 (NCI-H23): > 100 µM (inactive)
- GI50 (SK-MEL-28): > 100 µM (inactive)
- GI50 (HT-29): > 100 µM (inactive)
- GI50 (M19-MEL): > 100 µM (inactive)
- GI50 (SR): > 100 µM (inactive)
- GI50 (OVCAR-8): > 100 µM (inactive)
- GI50 (HOP-62): > 100 µM (inactive)
- GI50 (K562): > 100 µM (inactive)
- GI50 (KM-20L2): > 100 µM (inactive)
- GI50 (EKVX): > 100 µM (inactive)
- GI50 (LXFL 529): > 100 µM (inactive)
- GI50 (NCI-H522): > 100 µM (inactive)
- GI50 (M14): > 100 µM (inactive)
- GI50 (SF-268): > 100 µM (inactive)
- GI50 (OVCAR-4): > 100 µM (inactive)
- GI50 (U-251): > 100 µM (inactive)
- GI50 (HOP-92): > 100 µM (inactive)
- GI50 (RPMI-8226): > 100 µM (inactive)
- GI50 (NCI-H226): > 100 µM (inactive)
- GI50 (NCI-H460): > 100 µM (inactive)
- GI50 (HCT-15): > 100 µM
- GI50 (KM12): > 100 µM (inactive)
- GI50 (HCT-116): > 100 µM (inactive)
- GI50 (A498): 75.7 µM (inactive)
- GI50 (786-0): 71.6 µM (inactive)
- GI50 (UO-31): > 100 µM (inactive)
- GI50 (SK-MEL-5): > 100 µM (inactive)
- GI50 (HL-60): > 100 µM (inactive)
- GI50 (XF498): 30.1 µM (inactive)
- GI50 (DMS-114): > 100 µM (inactive)
- GI50 (SW-620): > 100 µM (inactive)
- GI50 (UACC-257): > 100 µM (inactive)
- GI50 (TK-10): > 100 µM (inactive)
- GI50 (OVCAR-5): > 100 µM (inactive)
- GI50 (DLD-1): > 100 µM (inactive)
- GI50 (Malme-3M): 60.1 µM (inactive)
- GI50 (CCRF-CEM): > 100 µM (inactive)
- GI50 (SNB-19): > 100 µM (inactive)
- GI50 (OVCAR-3): > 100 µM (inactive)
- GI50 (A549): > 100 µM (inactive)
- GI50 (SNB-75): 20.7 µM (inactive)
- GI50 (SN12C): > 100 µM (inactive)
- GI50 (SF-295): 65 µM (inactive)
- GI50 (CAKI-1): > 100 µM (inactive)
- GI50 (SNB-78): > 100 µM (inactive)
- GI50 (UACC-62): > 100 µM (inactive)
- GI50 (SK-OV-3): > 100 µM (inactive)
- GI50 (COLO 205): > 100 µM (inactive)
- GI50 (ACHN): > 100 µM (inactive)
- GI50 (MOLT-4): > 100 µM (inactive)

SMILES: O=C1OC(c2ccccc2)=N/C1=C\c1c(O)cc(O)cc1O
- GI50 (SK-MEL-2): > 100 µM (inactive)
- GI50 (DMS-273): 94.2 µM (inactive)
- GI50 (NCI-H23): > 100 µM (inactive)
- GI50 (SK-MEL-28): > 100 µM (inactive)
- GI50 (HT-29): > 100 µM (inactive)
- GI50 (M19-MEL): 83.6 µM (inactive)
- GI50 (OVCAR-8): > 100 µM (inactive)
- GI50 (K562): 32.4 µM (inactive)
- GI50 (KM-20L2): > 100 µM (inactive)
- GI50 (RXF 393): > 100 µM (inactive)
- GI50 (EKVX): > 100 µM (inactive)
- GI50 (LXFL 529): 41 µM (inactive)
- GI50 (NCI-H522): 47.2 µM (inactive)
- GI50 (M14): 60.3 µM (inactive)
- GI50 (SF-268): 99.5 µM (inactive)
- GI50 (SF-539): > 100 µM (inactive)
- GI50 (OVCAR-4): > 100 µM (inactive)
- GI50 (U-251): > 100 µM (inactive)
- GI50 (HOP-92): > 100 µM (inactive)
- GI50 (RPMI-8226): > 100 µM (inactive)
- GI50 (HCT-15): 38 µM
- GI50 (LOX IMVI): 78.3 µM (inactive)
- GI50 (KM12): > 100 µM (inactive)
- GI50 (HCT-116): 96.6 µM (inactive)
- GI50 (A498): > 100 µM (inactive)
- GI50 (IGROV-1): > 100 µM (inactive)
- GI50 (786-0): > 100 µM (inactive)
- GI50 (UO-31): > 100 µM (inactive)
- GI50 (SK-MEL-5): > 100 µM (inactive)
- GI50 (DMS-114): > 100 µM (inactive)
- GI50 (SW-620): > 100 µM (inactive)
- GI50 (UACC-257): > 100 µM (inactive)
- GI50 (TK-10): > 100 µM (inactive)
- GI50 (OVCAR-5): > 100 µM (inactive)
- GI50 (Malme-3M): > 100 µM (inactive)
- GI50 (HOP-18): > 100 µM (inactive)
- GI50 (CCRF-CEM): > 100 µM (inactive)
- GI50 (SNB-19): > 100 µM (inactive)
- GI50 (OVCAR-3): > 100 µM (inactive)
- GI50 (A549): > 100 µM (inactive)
- GI50 (SNB-75): > 100 µM (inactive)
- GI50 (SN12C): > 100 µM (inactive)
- GI50 (CAKI-1): > 100 µM (inactive)
- GI50 (SNB-78): > 100 µM (inactive)
- GI50 (UACC-62): 27.9 µM (inactive)
- GI50 (SK-OV-3): > 100 µM (inactive)
- GI50 (COLO 205): > 100 µM (inactive)
- GI50 (ACHN): 53.2 µM (inactive)
- GI50 (MOLT-4): > 100 µM (inactive)
